{"source": "patent US6060568A", "about": "“Carbene transition metal catalysts” (The Governors of the University of Alberta, priority 1999, dated 2000)", "key": {"[1]": {"assay": "Solution phase ethylene polymerization, semi-batch reactor (SBR)", "method": "(§1) All the solution polymerization experiments described below were conducted using an Autoclave Engineers Zipperclave reactor (500 mL). All the chemicals (solvent, catalyst and cocatalyst) were fed into the reactor batchwise except ethylene which was fed on demand. No product was removed during the polymerization reaction. As are known to those skilled in the art, all the feed streams were purified prior to feeding into the reactor by contact with various absorption media to remove catalysts killing impurities such as water, oxygen, sulfur and polar materials. All components were stored and manipulated under an atmosphere of purified argon or nitrogen. The reactor uses a programmable logical control (PLC) system with Wonderware 5.1 s, oftware for the process control. Ethylene polymerizations were performed in the reactor equipped with an air driven stirrer and an automatic temperature control system.\nThe catalyst was dissolved in toluene. The polymerization reaction time is typically 10 minutes. The reaction was terminated by adding 5 mL of methanol to the reactor and the polymer was recovered by evaporation of the solvent. The polymerization activities were calculated based on the ethylene consumption.\nExamples 1-18 were conducted on a solution semi-batch reactor (SBR).\nSBR Experimental Conditions with MAO Activation\nCatalyst Concentration 200 μmol/L\nPMAO-IP Al/Zr = 300 (mol/mol)\nReaction Temperature 160° C.\nReactor Pressure 140 psig total\nStirring Speed 2000 rpm\nSBR Experirimental Conditions with Trinitylborate Activation\nPMAO-IP 1 mmol/L as impurity scavenger\n^a SBR standard MAO screening conditions.\n^b Insitu alkylation: PMAOIP (Al/M = 20) premixed with catalyst, the\nmixture and tritylborate solution were injected into the reactor\n^c SBR standard trityl borate screening conditions.\n^d Premix catalyst and cocatalyst.\n^e Zr(Bz)4 as scavenger at 1.2 mmol/L. […]"}, "[2]": {"assay": "Low temperature and pressure slurry polymerization on catalyst screening unit (CSU)", "settings": "10 psig", "method": "Low pressure and temperature slurry polymerization experiments were conducted on a catalyst screening unit (CSU) where polymerization occurs in a cyclohexane reaction media, ethylene is fed to the reactor on demand and is monitored by a mass flow meter. On the CSU, reaction temperatures are monitored and controlled by thermocouples and one RTD. Reactor temperature control is maintained by a HAAKE circulating water bath which has external thermostatic control via the thermocouple at the reactor core. Reactor temperature is maintained by the water from the bath entering the jacket-like coolant chamber surrounding the reactor. Reaction pressures are indicated by mechanical pressure gauges and monitored manually.\nThe CSU shares the purified ethylene and cyclohexane feeds with the solution semi-batch reactor (SBR). Ultra-High-Purity argon from PRAXAIR which is purified further by 13× and OXICLEAR on a separate gas purification unit is used for reactor system purging and solvent sparging. The polymerization products are quantitatively recovered for mass determination, and polymerization activities are then calculated based upon mass of product, millimoles of catalyst injected and reaction time.\nExamples 25-32 were conducted on a catalyst screening unit (CSU).\nCatalyst Concentration 50 μmol/L (Zr)\nCatalyst Mole Ratio Al/Zr = 500/1\nPolymethylaluminoxane (PMAO-IP)\nReaction Temperature Setpoint 35° C.\nReactor Pressure Setpoint 10 psig total\nStirring Speed ~2250 +/- 300 rpm Initially\nCatalyst Concentration 50 μmol/L (M)\nCatalyst Mole Ratio Al/B/M = 20/1.05/1\nModified Methylaluminoxane (MMAO-"}, "[3]": {"assay": "Gas phase polymerization, supported catalyst, semi-batch gas phase reactor", "settings": "200 psig, 90° C., 60 minutes; for Yield PE: 50-54 mg supported catalyst", "description": "The catalyst preparation methods described below employ typical techniques for the syntheses and handling of air-sensitive materials. Standard Schlenk and drybox techniques were used in the preparation of ligands, metal complexes, support substrates and supported catalyst systems. Solvents were purchased as anhydrous materials and further treated to remove oxygen and polar impurities by contact with a combination of activated alumina, molecular sieves and copper oxide on silica/alumina. Where appropriate, elemental compositions of the supported catalysts were measured by Neutron Activation analysis and a reported accuracy of ±1% (weight basis).\nThe supported catalysts were prepared by initially supporting MAO on a silica support, followed by deposition of the catalyst component.\n(§2) All the polymerization experiments described below were conducted using a semi-batch, gas phase polymerization reactor of total internal volume of 2.2 L. Reaction gas mixtures, including ethylene were measured to the reactor on a continuous basis using a calibrated thermal mass flow meter, following passage through purification media as described above. A pre-determined mass of the catalyst sample was added to the reactor under the flow of the inlet gas with no pre-contact of the catalyst with any reagent, such as a catalyst activator. The catalyst was activated in situ (in the polymerization reactor) at the reaction temperature in the presence of the monomer, using a metal alkyl complex which has been previously added to the reactor to remove adventitious impurities. Purified and rigorously anhydrous sodium chloride was used as a catalyst dispersing agent.\nThe internal reactor temperature is monitored by a thermocouple in the polymerization medium and can be controlled at the required set point to +/-1.0° C. The duration of the polymerization experiment was one hour. Following the completion of the polymerization experiment, the polymer was separated from the sodium chloride and the yield determined. The following table illustrates bench scale gas phase reaction conditions.\nSolvent 5-10 mL hexane added with catalyst\nOperating Mode Gas Phase\n(§3) Aluminum alkyl 25-30 wt. % triisobutyl aluminum\n(§4) Reaction Pressure 200 psig\n(§5) Reaction Temperature 90° C.\n(§6) Reaction Time 60 minutes\nExamples 19-22 are examples of the gas phase polymerization. The next table illustrates data concerning the Al/transition metal ratios of the supported catalyst, polymer yield and polymer properties."}, "[4]": {"assay": "High temperature and pressure slurry polymerization, supported catalyst", "settings": "slurry in hexane, 200 psig, 90° C., 60 minutes", "method": "The supported catalyst described in Part B was also used for the slurry polymerization tests.\nas §2, with “a semi-batch” for “a semi-batch, gas phase polymerization”, “sample as” for “sample was”, “complex and solvent” for “complex”, “which have” for “which has”, “impurities.” for “impurities. Purified and rigorously anhydrous sodium chloride was used as a catalyst dispersing agent.”\nThe internal reactor temperature is monitored by a thermocouple in the polymerization medium and can be controlled at the required set point to +/-1.0° C. The duration of the polymerization experiment was one hour. Following the completion of the polymerization experiment, the slurry was transferred from the reactor to a bowl, and the solvent was left to evaporate. The following table illustrates bench scale slurry phase reaction conditions.\nOperating Mode Slurry Phase\nas §3, §4, §5, §6\nExamples 23-24 are high pressure and temperature slurry polymerization examples. The next table illustrates data concerning the Al/transition metal ratios of the supported catalyst; polymer yield and polymer properties."}, "[5]": {"assay": "Solution phase copolymerization of ethylene with 1-octene, semi-batch reactor (SBR)", "settings": "[CPh3 ][B(C6 F5)4 ]; copolymerization with 20 mL of 1-octene; based on polymer weight", "method": "Polymer molecular weights and molecular weight distributions were measured by GPC (Waters 150-C) at 140° C. in 1,2,4-trichlorobenzene calibrated using polyethylene standards.\nas §1\nThe catalyst was dissolved in toluene. The polymerization reaction time is typically 10 minutes. […] The polymerization activities were calculated based on the ethylene consumption. […]\nwere calculated based on polymer weight. 20.7 Br/1000 C detected by NMR […]"}, "[6]": {"settings": "SBR standard MAO screening: PMAO-IP, Al/Zr = 300, 160° C., 140 psig"}, "[7]": {"settings": "SBR standard trityl borate screening: [CPh3 ][B(C6 F5)4 ], 160° C., 140 psig"}, "[8]": {"settings": "MMAO-7/[CPh3 ][B(C6 F5)4 ], Al/B/M = 20/1.05/1, 35° C."}, "[9]": {"settings": "[CPh3 ][B(C6 F5)4 ], in situ alkylation, PMAO-IP (Al/M = 20) premixed with catalyst, 160° C."}}, "data": [{"compound": "[Cl][Zr+2][Cl].c1cc[cH-]c1.c1cc[cH-]c1", "note": "[Cp2 ZrCl2, reference compound]", "values": [{"measurement": "Activity", "setting": "[1]; [6]", "value": 1339.9, "unit": "gPE/mmol cat*hr"}, {"measurement": "Activity", "setting": "[2]; PMAO-IP, Al/Zr = 500/1, 35° C.", "value": 2692, "unit": "gPE/mmol cat*hr"}]}, {"compound": "[ZnMe{HC(Ph2 P=NSiMe3)2 }] [AK-17]", "values": [{"measurement": "Yield per catalyst", "setting": "[3]", "value": 0, "unit": "gPE/g Catalyst"}, {"measurement": "Yield per metal", "setting": "[3]", "value": 0, "unit": "gPE/g Metal"}, {"measurement": "Yield PE", "setting": "[3]", "value": 0, "unit": "g"}, {"measurement": "Activity", "setting": "[1]; [7]", "value": 89.78, "unit": "gPE/mmol cat*hr"}, {"measurement": "Activity", "setting": "[2]; [8]", "value": 4, "unit": "gPE/mmol cat*hr"}]}, {"compound": "[ZrCl2 {(C(O)(NAd))C(Ph2 P=NSiMe3)2 }] [KB-103]", "values": [{"measurement": "Yield per catalyst", "setting": "[3]", "value": 8, "unit": "gPE/g Catalyst"}, {"measurement": "Yield per metal", "setting": "[3]", "value": 1607, "unit": "gPE/g Metal"}, {"measurement": "Yield PE", "setting": "[3]", "value": 0.4, "unit": "g"}, {"measurement": "Activity", "setting": "[1]; [6]", "value": 129.0, "unit": "gPE/mmol cat*hr"}, {"measurement": "Activity", "setting": "[1]; [9]", "value": 498.7, "unit": "gPE/mmol cat*hr"}, {"measurement": "Activity", "setting": "[2]; PMAO-IP, Al/Zr = 500/1, 35° C.", "value": 0, "unit": "gPE/mmol cat*hr"}]}, {"compound": "[ZrCl2 {C(Cy2 =NSiMe3)2 }] [Zr-3C]", "values": [{"measurement": "Activity", "setting": "[1]; [6]", "value": 22.7, "unit": "gPE/mmol cat*hr"}, {"measurement": "Activity", "setting": "[1]; [9]", "value": 70.6, "unit": "gPE/mmol cat*hr"}, {"measurement": "Activity", "setting": "[2]; PMAO-IP, Al/Zr = 500/1, 35° C.", "value": 0, "unit": "gPE/mmol cat*hr"}]}, {"compound": "[ZrCl2 {C(Ph2 P=NSiMe3)2 }] [Zr-3D]", "values": [{"measurement": "Yield per catalyst", "setting": "[3]", "value": 0, "unit": "gPE/g Catalyst"}, {"measurement": "Yield per metal", "setting": "[3]", "value": 0, "unit": "gPE/g Metal"}, {"measurement": "Yield PE", "setting": "[3]", "value": 0, "unit": "g"}, {"measurement": "Activity", "setting": "[1]; [6]", "value": 14.2, "unit": "gPE/mmol cat*hr"}, {"measurement": "Yield per catalyst", "setting": "[4]", "value": 4, "unit": "gPE/g Catalyst"}, {"measurement": "Yield per metal", "setting": "[4]", "value": 915, "unit": "gPE/g Metal"}, {"measurement": "Yield PE", "setting": "[4]; 122-137 mg supported catalyst", "value": 0.6, "unit": "g"}, {"measurement": "Activity", "setting": "[2]; PMAO-IP, Al/Zr = 500/1, 35° C.", "value": 1, "unit": "gPE/mmol cat*hr"}]}, {"compound": "[ZrMe2 {C(Cy2 =NSiMe3)2 }] [Zr-3C-Me2]", "values": [{"measurement": "Activity", "setting": "[1]; [7]", "value": 56.8, "unit": "gPE/mmol cat*hr"}, {"measurement": "Activity", "setting": "[5]", "value": 8.22, "unit": "gPE/mmol cat*hr"}, {"measurement": "Activity", "setting": "[2]; [8]", "value": 29, "unit": "gPE/mmol cat*hr"}]}, {"compound": "[Zr{C(Ph2 P=NSimMe3)2 }(CH2 C6 H5)2 ] [Zr-6D]", "values": [{"measurement": "Activity", "setting": "[1]; [7]", "value": 11.6, "unit": "gPE/mmol cat*hr"}, {"measurement": "Activity", "setting": "[1]; [CPh3 ][B(C6 F5)4 ], Zr(Bz)4 as scavenger at 1.2 mmol/L, 160° C.", "value": 14.4, "unit": "gPE/mmol cat*hr"}, {"measurement": "Activity", "setting": "[1]; [CPh3 ][B(C6 F5)4 ], premix catalyst and cocatalyst, 160° C.", "value": 42.7, "unit": "gPE/mmol cat*hr"}, {"measurement": "Activity", "setting": "[1]; cocatalyst B(C6 F5)3, footnote c standard trityl borate screening conditions, 160° C.", "value": 9.12, "unit": "gPE/mmol cat*hr"}, {"measurement": "Activity", "setting": "[5]", "value": 10.5, "unit": "gPE/mmol cat*hr"}, {"measurement": "Activity", "setting": "[2]; PMAO-IP, Al/Zr = 500/1, 35° C.", "value": 13, "unit": "gPE/mmol cat*hr"}]}]}
